Test results from PMC5011342, “A high throughput drug screening assay to identify compounds that promote oligodendrocyte differentiation using acutely dissociated and purified oligodendrocyte precursor cells” (BMC Research Notes, 2016).

Legend:
[1] = system: acutely dissociated and purified rat OPCs; experiment: Acute OL differentiation assay (MBP expression/cell, immunofluorescent image quantification); type: cell-based
Outline: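 Oligodendrocyte precursor cells were enriched from P6-P7 Sprague–Dawley rat brains by immunopanning (RAN-2 and GalC depletion, O4 selection), plated at 5000 cells/well in serum-free, mitogen-free differentiation media on PDL/laminin 96-well view plates, centrifuged at 200×g, and pre-incubated 1–2 h before test compounds were added in quadruplicate. On DIV4, cells were fixed, stained for MBP and DAPI, imaged automatically, and MBP expression per cell was quantified.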

[2] = design: method as in Trial NCT00039988; conditions: add-on therapy to capaxone (glatiramir acetate), RRMS patients; ref Trial NCT00039988; cited from earlier work

SMILES: CC(C)(C)NCC(O)c1ccc(O)c(CO)c1 (stereo not shown) [albuterol, reference compound]
- promotion of OL differentiation (in words) ([1]; MBP expression versus 0.1 % DMSO negative control): not a hit in our screen
- activation at 2 µM ([1]; Rattus norvegicus, 2 uM test compound, relative to quetiapine, sheet "All OLga data", read-out: OL differentiation, 2 uM (% Quet)): -6%
- activation at 10 µM ([1]; Rattus norvegicus, 10 uM test compound, relative to quetiapine, sheet "All OLga data", read-out: OL differentiation, 10 uM (% Quet)): 18.6%
- clinical outcomes [2]: improved clinical outcomes
